Assay results taken from US11702422B2, “Imidazopyridazines as modulators of IL-17” (Janssen Pharmaceutica NV, priority 2020, dated 2023).
pIC50: −log10 of the molar value.

Legend:
[1] = target: IL-17A(FLAG-Tagged): IL-17RA(His-Tagged) (Homo sapiens, UniProt Q16552, K93Q); test: IL-17A(FLAG-Tagged): IL-17RA(His-Tagged) Binding Disruption Eu-HTRF Assay; conditions: IL-17A/IL-17RA binding disruption, simple average if tested more than once
Summary of the method: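 IC50 comes from a one-site competition fit of the HTRF 665/620 nm ratio. Compound dilutions (2-fold, 22 points) were held 1 h rt with FLAG-tagged IL-17A dimer, then His-tagged IL-17RA plus Eu-cryptate anti-FLAG and D2 anti-His antibodies were added for 2 h rt.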

[2] = test system: IL-17A-induced G-CSF production in human normal keratinocyte (NHK); test: NHK Assay: IL-17A-induced G-CSF production in human normal keratinocytes; format: cell-based; conditions: adult normal human keratinocytes, IL-17A 5 ng/mL, 24 h, simple average if tested more than once
Summary of the method: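 HTRF read-out of supernatant G-CSF, quantified from a standard curve, gave IC50 values. Adult keratinocytes, 3000-4000 cells/well, received human IL-17A (5 ng/mL final) pre-mixed 1 h at rt with compound, in 5% FBS and 0.2% DMSO, 24 h at 37° C.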

Sequence of UniProt Q16552 (Q16552 with tags, fused parts or gaps K93Q): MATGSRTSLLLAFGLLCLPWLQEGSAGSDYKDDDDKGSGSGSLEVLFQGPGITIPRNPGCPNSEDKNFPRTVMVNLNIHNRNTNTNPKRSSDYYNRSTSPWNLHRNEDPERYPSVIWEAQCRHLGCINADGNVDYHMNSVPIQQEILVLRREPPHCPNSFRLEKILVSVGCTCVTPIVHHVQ

Row | SMILES | pIC50 [1] | pIC50 [2] | pIC50 ([2]; Homo sapiens, Keratinocyte)
1 | Cc1nonc1C(=O)N[C@H](c1cn2ncc([C@H](NC(=O)C(C)CC(F)(F)F)C3CC3)cc2n1)C1CCC(F)(F)CC1 (single isomer, unassigned) [Example 346, N—((S)-(7-((R)-Cyclopropyl((R*)-4,4,4-trifluoro-2-methylbutanamido)methyl)imidazo[1,2-b]pyridazin-2-yl)(4,4-difluorocyclohexyl)methyl)-4-methyl-1,2,5-oxadiazole-3-carboxamide] | 6.82 | 6.36 | –
2 | Cc1nonc1C(=O)N[C@H](c1cn2ncc([C@H](NC(=O)C(C)CC(F)(F)F)C3CC3)cc2n1)C1CCC(F)(F)CC1 (single isomer, unassigned) [Example 347, N—((S)-(7-((R)-Cyclopropyl((S*)-4,4,4-trifluoro-2-methylbutanamido)methyl)imidazo[1,2-b]pyridazin-2-yl)(4,4-difluorocyclohexyl)methyl)-4-methyl-1,2,5-oxadiazole-3-carboxamide] | 6.33 | 5.80 | –
3 | Cc1nonc1C(=O)N[C@H](c1cn2ncc([C@H](NC(=O)C(F)C3CCC3)C3CC3)cc2n1)C1CCC(F)(F)CC1 (single isomer, unassigned) [Example 348, N—((S)-(7-((R)-((R*)-2-Cyclobutyl-2-fluoroacetamido)(cyclopropyl)methyl)imidazo[1,2-b]pyridazin-2-yl)(4,4-difluorocyclohexyl)methyl)-4-methyl-1,2,5-oxadiazole-3-carboxamide] | 7.16 | 6.66 | –
4 | Cc1nonc1C(=O)N[C@H](c1cn2ncc([C@H](NC(=O)C(F)C3CCC3)C3CC3)cc2n1)C1CCC(F)(F)CC1 (single isomer, unassigned) [Example 349, N—((S)-(7-((R)-((S*)-2-Cyclobutyl-2-fluoroacetamido)(cyclopropyl)methyl)imidazo[1,2-b]pyridazin-2-yl)(4,4-difluorocyclohexyl)methyl)-4-methyl-1,2,5-oxadiazole-3-carboxamide] | 6.38 | 5.77 | –
5 | Cc1nonc1C(=O)N[C@H](c1cn2ncc([C@H](NC(=O)CC(C)CC(F)(F)F)C3CC3)cc2n1)C1CCC(F)(F)CC1 (single isomer, unassigned) [Example 350, N—((S)-(7-((R)-Cyclopropyl((R*)-5,5,5-trifluoro-3-methylpentanamido)methyl)imidazo[1,2-b]pyridazin-2-yl)(4,4-difluorocyclohexyl)methyl)-4-methyl-1,2,5-oxadiazole-3-carboxamide] | 6.57 | – | 6.18
6 | O=C(CCC(F)(F)F)N[C@@H](c1cnn2cc([C@@H](NC(=O)[C@@H]3C[C@H]3C(F)F)C3CCC(F)(F)CC3)nc2c1)C1CC1 (single isomer, unassigned) [Example 360] | 5.57 | – | < 4.70
7 | O=C(CCC(F)(F)F)N[C@@H](c1cnn2cc([C@@H](NC(=O)[C@H]3C[C@@H]3C(F)F)C3CCC(F)(F)CC3)nc2c1)C1CC1 (single isomer, unassigned) [Example 361] | 6.68 | – | 5.77
8 | CC(O)c1nonc1C(=O)N[C@H](c1cn2ncc([C@H](NC(=O)CC3CC(F)(F)C3)C3CC3)cc2n1)C1CCC(F)(F)CC1 (single isomer, unassigned) [Example 395, N—((S)-(7-((R)-Cyclopropyl(2-(3,3-difluorocyclobutyl)acetamido)methyl)imidazo[1,2-b]pyridazin-2-yl)(4,4-difluorocyclohexyl)methyl)-4-((R*)-1-hydroxyethyl)-1,2,5-oxadiazole-3-carboxamide] | 7.32 | – | 6.77
9 | CC(O)c1nonc1C(=O)N[C@H](c1cn2ncc([C@H](NC(=O)CC3CC(F)(F)C3)C3CC3)cc2n1)C1CCC(F)(F)CC1 (single isomer, unassigned) [Example 396, N—((S)-(7-((R)-Cyclopropyl(2-(3,3-difluorocyclobutyl)acetamido)methyl)imidazo[1,2-b]pyridazin-2-yl)(4,4-difluorocyclohexyl)methyl)-4-((S*)-1-hydroxyethyl)-1,2,5-oxadiazole-3-carboxamide] | 7.30 | 6.72 | –
10 | Cc1nonc1C(=O)N[C@H](c1cn2ncc(C(CC#N)NC(=O)CC3CC(F)(F)C3)cc2n1)C1CCC(F)(F)CC1 (single isomer, unassigned) [Example 397, N—((S)-(7-((S*)-2-Cyano-1-(2-(3,3-difluorocyclobutyl)acetamido)ethyl)imidazo[1,2-b]pyridazin-2-yl)(4,4-difluorocyclohexyl)methyl)-4-methyl-1,2,5-oxadiazole-3-carboxamide] | 6.92 | 6.22 | –
11 | N#CCC(NC(=O)CC1CC(F)(F)C1)c1cnn2cc([C@@H](NC(=O)c3nonc3C3CC3)C3CCC(F)(F)CC3)nc2c1 (single isomer, unassigned) [Example 398, N—((S)-(7-((S*)-2-Cyano-1-(2-(3,3-difluorocyclobutyl)acetamido)ethyl)imidazo[1,2-b]pyridazin-2-yl)(4,4-difluorocyclohexyl)methyl)-4-cyclopropyl-1,2,5-oxadiazole-3-carboxamide] | 7.38 | – | 7.15
12 | CC(C)n1nccc1C(=O)N[C@H](c1cn2ncc(C(CC#N)NC(=O)CC3CC(F)(F)C3)cc2n1)C1CCC(F)(F)CC1 (single isomer, unassigned) [Example 399, N—((S)-(7-((S*)-2-Cyano-1-(2-(3,3-difluorocyclobutyl)acetamido)ethyl)imidazo[1,2-b]pyridazin-2-yl)(4,4-difluorocyclohexyl)methyl)-1-isopropyl-1H-pyrazole-5-carboxamide] | 6.51 | 7.03 | –
13 | O=C(CC1CC(F)(F)C1)NC(CC(F)F)c1cnn2cc([C@@H](NC(=O)c3nonc3C3CC3)C3CCC(F)(F)CC3)nc2c1 (single isomer, unassigned) [Example 400, 4-Cyclopropyl-N—((S)-(7-((R*)-1-(2-(3,3-difluorocyclobutyl)acetamido)-3,3-difluoropropyl)imidazo[1,2-b]pyridazin-2-yl)(4,4-difluorocyclohexyl)methyl)-1,2,5-oxadiazole-3-carboxamide] | 7.31 | – | 7.46
14 | O=C(CC1CC(F)(F)C1)N[C@@H](c1cnn2cc([C@@H](NC(=O)c3nonc3C(O)C3CC3)C3CCC(F)(F)CC3)nc2c1)C1CC1 (single isomer, unassigned) [Example 401, N—((S)-(7-((R)-Cyclopropyl(2-(3,3-difluorocyclobutyl)acetamido)methyl)imidazo[1,2-b]pyridazin-2-yl)(4,4-difluorocyclohexyl)methyl)-4-((R*)-cyclopropyl(hydroxy)methyl)-1,2,5-oxadiazole-3-carboxamide] | 6.82 | – | 7.24
15 | O=C(CC1CC(F)(F)C1)N[C@@H](c1cnn2cc([C@@H](NC(=O)c3nonc3C(O)C3CC3)C3CCC(F)(F)CC3)nc2c1)C1CC1 (single isomer, unassigned) [Example 402, N—((S)-(7-((R)-Cyclopropyl(2-(3,3-difluorocyclobutyl)acetamido)methyl)imidazo[1,2-b]pyridazin-2-yl)(4,4-difluorocyclohexyl)methyl)-4-((S*)-cyclopropyl(hydroxy)methyl)-1,2,5-oxadiazole-3-carboxamide] | 6.96 | 6.96 | –
16 | O=C(CC1CC(F)(F)C1)NC(c1cnn2cc([C@@H](NC(=O)c3nonc3C3CC3)C3CCC(F)(F)CC3)nc2c1)C(F)(F)F (single isomer, unassigned) [Example 421, 4-Cyclopropyl-N—((S)-(7-((S*)-1-(2-(3,3-difluorocyclobutyl)acetamido)-2,2,2-trifluoroethyl)imidazo[1,2-b]pyridazin-2-yl)(4,4-difluorocyclohexyl)methyl)-1,2,5-oxadiazole-3-carboxamide] | 7.01 | – | 7.37
17 | CC(C)n1nccc1C(=O)N[C@H](c1cn2ncc(C(NC(=O)CC3CC(F)(F)C3)C(F)(F)F)cc2n1)C1CCC(F)(F)CC1 (single isomer, unassigned) [Example 422, N—((S)-(7-((S*)-1-(2-(3,3-Difluorocyclobutyl)acetamido)-2,2,2-trifluoroethyl)imidazo[1,2-b]pyridazin-2-yl)(4,4-difluorocyclohexyl)methyl)-1-isopropyl-1H-pyrazole-5-carboxamide] | 6.59 | – | 7.09
18 | Cc1nonc1C(=O)N[C@H](c1cn2ncc(C(NC(=O)CC3CC(F)(F)C3)C3(C#N)CC3)cc2n1)C1CCC(F)(F)CC1 (single isomer, unassigned) [Example 423, N—((S)-(7-((S*)-(1-Cyanocyclopropyl)(2-(3,3-difluorocyclobutyl)acetamido)methyl)imidazo[1,2-b]pyridazin-2-yl)(4,4-difluorocyclohexyl)methyl)-4-methyl-1,2,5-oxadiazole-3-carboxamide] | 7.11 | – | 6.89
19 | N#CC1(C(NC(=O)CC2CC(F)(F)C2)c2cnn3cc([C@@H](NC(=O)c4nonc4C4CC4)C4CCC(F)(F)CC4)nc3c2)CC1 (single isomer, unassigned) [Example 424, N—((S)-(7-((S*)-(1-Cyanocyclopropyl)(2-(3,3-difluorocyclobutyl)acetamido)methyl)imidazo[1,2-b]pyridazin-2-yl)(4,4-difluorocyclohexyl)methyl)-4-cyclopropyl-1,2,5-oxadiazole-3-carboxamide] | 7.33 | 7.40 | –
